The subject of the assay is target microorganisms. The assay is described as follows: Screen of synthesized peptides for binding to target microorganisms (targeting peptides, Tables 2 and 3). To be noted: microorganism(s) the targeting peptide was identified as binding to (Table 3). As for the experimental part: Once noted, these peptides were batch synthesized on a multiplex peptide synthesizer, yielding 5-10 mg of each peptide that could readily be screened for biological activity (e.g., binding activity and/or antimicrobial activity.
Other suitable targeting peptides include the peptides that have been identified as binding to particular target organisms as shown in Table 3 and/or Table 4.

48 substances from patent US8389679B2, “Targeted antimicrobial moieties” (priority 2009, dated 2013) can be followed below.

“Also recorded” adds a separate entry of the source.

Regarding “1T-37 (YIVGALVILAVAGLIYSMLRKA; synthetic novel tartgeting peptide IT-37)”, the “Target(s)” value is listed as “S. mutans; also recorded: S. aereus; also recorded: S. epidermidis; also recorded: C. jeikeium; also recorded: C. xerosis; also recorded: C. striatum; also recorded: P. aeruginosa”. As for “1T-38 (VMFVLTRGRSPRPMIPAY; synthetic novel tartgeting peptide IT-38)”, the “Target(s)” value is given as “S. mutans; also recorded: S. aereus; also recorded: S. epidermidis; also recorded: C. jeikeium; also recorded: C. xerosis; also recorded: C. striatum; also recorded: P. aeruginosa”. With “1T-39 (FGFCVWMYQLLAGPPGPPA; synthetic novel tartgeting peptide IT-39)”, the “Target(s)” value was “S. mutans; also recorded: P. aeruginosa”. Regarding “1T-40 (QRVSLWSEVEHEFR; synthetic novel tartgeting peptide IT-40)”, the “Target(s)” value is listed as “S. mutans; also recorded: P. aeruginosa”. Turning to “1T-41 (KRGSKIVIAIAVVLIVLAGVWVW; synthetic novel tartgeting peptide IT-41)”, the “Target(s)” value is reported as “S. mutans; also recorded: S. aureus; also recorded: S. epidermidis; also recorded: C. jeikeium; also recorded: C. striatum; also recorded: P. aeruginosa”. In the case of “1T-42 (TVLDWLSLALATGLFVYLLVALLRADRA; synthetic novel tartgeting peptide IT-42)” it was “S. aureus; also recorded: S. epidermidis; also recorded: C. xerosis; also recorded: C. striatum; also recorded: P. aeruginosa”; in that of “1T-43 (DRCLSVLSWSPPKVSPLI; synthetic novel tartgeting peptide IT-43)”, “C. jeikium; also recorded: P. aeruginosa”; in that of “1T-44 (DPALADFAAGMRAQVRT; synthetic novel tartgeting peptide IT-44)”, “S. mutans; also recorded: S. aureus; also recorded: S. epidermidis; also recorded: C. jeikeium; also recorded: C. striatum; also recorded: P. aeruginosa”. Take “1T-45 (WTKPSFTDLRLGFEVTLYFANR; synthetic novel tartgeting peptide IT-45)”: the “Target(s)” value is “S. aureus; also recorded: S. epidermidis; also recorded: C. striatum; also recorded: P. aeruginosa”.

In the case of “1T-46 (FSFKQRVMFRKEVERLR; synthetic novel tartgeting peptide IT-46)”, the “Target(s)” value is on record as “S. aureus; also recorded: S. epidermidis; also recorded: C. jeikeium; also recorded: C. xerosis; also recorded: C. striatum; also recorded: P. aeruginosa”. On to “1T-47 (VIKISVPGQVQMLIP; synthetic novel tartgeting peptide IT-47)”, for which the “Target(s)” value is recorded as “S. mutans; also recorded: S. epidermidis; also recorded: P. aeruginosa”. For “1T-48 (KLQVHHGRATHTLLLQPPLCAPGTIR; synthetic novel tartgeting peptide IT-48)”, the “Target(s)” value was “S. aureus; also recorded: S. epidermidis; also recorded: C. jeikeium; also recorded: C. xerosis; also recorded: C. striatum; also recorded: P. aeruginosa”. As for “1T-49 (SLVRIHDQQPWVTRGAFIDAARTCS; synthetic novel tartgeting peptide IT-49)”, the “Target(s)” value is “S. aureus; also recorded: S. epidermidis; also recorded: C. jeikeium; also recorded: P. aeruginosa”. As for “1T-50 (HSDEPIPNILFKSDSVH; synthetic novel tartgeting peptide IT-50)”, the “Target(s)” value is given as “P. aeruginosa”. In the case of “1T-51 (GKPKRMPAEFIDGYGQALLAGA; synthetic novel tartgeting peptide IT-51)” it was “S. aureus; also recorded: P. aeruginosa”. On to “1T-52 (DEYPAKLPLSDKGATEPRRH; synthetic novel tartgeting peptide IT-52)”, for which the “Target(s)” value is given as “S. aureus; also recorded: C. xerosis; also recorded: P. aeruginosa”. As to “1T-53 (SDILAEMFEKGELQTLVKDAAAKANA; synthetic novel tartgeting peptide IT-53)”, the “Target(s)” value is “P. aeruginosa”. With “1T-54 (RWVSCNPSWRIQ; synthetic novel tartgeting peptide IT-54)”, the “Target(s)” value was “S. epidermidis; also recorded: C. xerosis; also recorded: C. striatum; also recorded: P. aeruginosa”. The value for “1T-55 (NHKTLKEWKAKWGPEAVESWATLLG; synthetic novel tartgeting peptide IT-55)” was “C. xerosis; also recorded: P. aeruginosa”; that for “1T-56 (LALIGAGIWMIRKG; synthetic novel tartgeting peptide IT-56)” was “C. xerosis; also recorded: P. aeruginosa”. Consider “1T-57 (RLEYRRLETQVEENPESGRRPMRG; synthetic novel tartgeting peptide IT-57)”, for which the “Target(s)” value was “P. aeruginosa”. The value for “1T-58 (CDDLHALERAGKLDALLSA; synthetic novel tartgeting peptide IT-58)” was “P. aeruginosa”; that for “1T-59 (AVGNNLGKDNDSGHRGKKHRKHKHR; synthetic novel tartgeting peptide IT-59)” was “S. aureus; also recorded: S. epidermidis; also recorded: P. aeruginosa”; that for “1T-60 (YLTSLGLDAAEQAQGLLTILKG; synthetic novel tartgeting peptide IT-60)” was “S. aureus; also recorded: S. epidermidis; also recorded: C. jeikeium; also recorded: C. striatum; also recorded: P. aeruginosa”. Consider “1T-61 (HATLLPAVREAISRQLLPALVPRG; synthetic novel tartgeting peptide IT-61)”, for which the “Target(s)” value is listed as “P. aeruginosa”. With “1T-62 (GCKGCAQRDPCAEPEPYFRLR; synthetic novel tartgeting peptide IT-62)”, the “Target(s)” value was “S. epidermidis; also recorded: P. aeruginosa”. As for “1T-63 (EPLILKELVRNLFLFCYARALR; synthetic novel tartgeting peptide IT-63)”, the “Target(s)” value is “S. aureus; also recorded: S. epidermidis; also recorded: C. jeikeium; also recorded: C. xerosis; also recorded: C. striatum; also recorded: P. aeruginosa”. The value for “1T-64 (QTVHHIHMHVLGQRQMHWPPG; synthetic novel tartgeting peptide IT-64)” was “S. aureus; also recorded: S. epidermidis; also recorded: C. jeikeium; also recorded: C. xerosis; also recorded: C. striatum; also recorded: P. aeruginosa”. Turning to “1T-65 (HARAAVGVAELPRGAAVEVELIAAVRP; synthetic novel tartgeting peptide IT-65)”, the “Target(s)” value is recorded as “S. mutans; also recorded: S. aureus; also recorded: S. epidermidis; also recorded: C. jeikeium; also recorded: C. xerosis; also recorded: C. striatum; also recorded: P. aeruginosa”.

On to “1T-66 (DTDCLSRAYAQRIDELDKQYAGIDKPL; synthetic novel tartgeting peptide IT-66)”, for which the “Target(s)” value is “S. mutans; also recorded: S. aureus; also recorded: S. epidermidis; also recorded: C. jeikeium; also recorded: C. xerosis; also recorded: C. striatum; also recorded: P. aeruginosa”. As for “1T-67 (GQRQRLTCGRVSGCSEGPSREAAR; synthetic novel tartgeting peptide IT-67)”, the “Target(s)” value is recorded as “S. aureus; also recorded: S. epidermidis; also recorded: C. jeikeium; also recorded: C. xerosis; also recorded: C. striatum; also recorded: P. aeruginosa”. “1T-68 (GGTKEIVYQRG; synthetic novel tartgeting peptide IT-68)”: the “Target(s)” value was “S. mutans; also recorded: S. aureus; also recorded: C. jeikeium; also recorded: C. xerosis; also recorded: C. striatum; also recorded: P. aeruginosa”.

Take “1T-69 (ILSQEADRKKLF; synthetic novel tartgeting peptide IT-69)”: the “Target(s)” value is listed as “S. mutans; also recorded: P. aeruginosa”.

Consider “1T-70 (NRQAQGERAHGEQQG; synthetic novel tartgeting peptide IT-70)”, for which the “Target(s)” value is given as “S. aureus; also recorded: C. jeikeium; also recorded: P. aeruginosa”. Turning to “1T-71 (KIDTNQWPPNKEG; synthetic novel tartgeting peptide IT-71)”, the “Target(s)” value was “P. aeruginosa”. In the case of “1T-72 (EPTDGVACKER; synthetic novel tartgeting peptide IT-72)” it was “P. aeruginosa”; in that of “1T-73 (GWWEELLHETILSKFKITKALELPIQL; synthetic novel tartgeting peptide IT-73)”, “Streptococcus; also recorded: pneumoniae”; in that of “1T-74 (DIDWGRKISCAAGVAYGAIDGCATTV; synthetic novel tartgeting peptide IT-74)”, “S. pneumoniae”.

For “1T-75 (GVARGLQLGIKTRTQWGAATGAA; synthetic novel tartgeting peptide IT-75)”, the “Target(s)” value was “S. pneumoniae”. As to “1T-76 (EMRLSKFFRDFILWRKK; synthetic novel tartgeting peptide IT-76)”, the “Target(s)” value was “S. pneumoniae”. As for “1T-77 (EMRISRIILDFLFLRKK; synthetic novel tartgeting peptide IT-77)”, the “Target(s)” value is given as “S. pneumoniae”. Consider “1T-78 (FFKTIFVLILGALGVAAGLYIEKNYIDK; synthetic novel tartgeting peptide IT-78)”, for which the “Target(s)” value is recorded as “S. pneumoniae”. For “1T-79 (FGTPWSITNFWKKNFNDRPDFDSDRRRY; synthetic novel tartgeting peptide IT-79)”, the “Target(s)” value is “S. pneumoniae”. The value for “1T-80 (GGNLGPGFGVIIP; synthetic novel tartgeting peptide IT-80)” was “S. pneumoniae”; that for “1T-81 (AIATGLDIVDGKFDGYLWA; synthetic novel tartgeting peptide IT-81)” was “S. pneumoniae”; that for “1T-82 (FGVGVGIALFMAGYAIGKDLRKKFGKSC; synthetic novel tartgeting peptide IT-82)” was “S. pneumoniae”. As for “1T-83 (QKPRKNETFIGYIQRYDIDGNGYQSLPCPQN; synthetic novel tartgeting peptide IT-83)”, the “Target(s)” value was “S. pneumoniae”. In the case of “1T-84 (FRKKRYGLSILLWLNAFTNLVNSIHAFYMTLF; synthetic novel tartgeting peptide IT-84)” it was “S. pneumoniae”.
